The subject of one series is formaldehyde pain model. Briefly: In vivo comparative pain-relieving model study (formaldehyde pain model). On the set-up: species or system Rabbits. Conditions: Test 300 mg/kg orally, reference 150 mg/kg; for Amplitude of rubbing activity, Mean / Amplitude of rubbing activity, Sum: group of 4 rabbits; for Amplitude of rubbing activity, Mean / Amplitude of rubbing activity, Sum / Amplitude of rubbing activity: 60 min post dose of formalin; for No. of rubbings / Amplitude of rubbing activity: individual rabbit; for No. of rubbings: 60 min post dose of formalin (2.5%, 0.1 ml into paw). How it is done:
12 Rabbits (M&F) (formaldehyde pain model 6 hr) were divided into 3 groups 4 rabbits in each group, Group-A Test (Acetaminophen phenylbutyrate) and Group-B reference (Acetaminophen) and Group-C Control (placebo). Group-A 4 rabbits (2M & 2F) were treated with Test 300 mg/kg orally given and 150 mg/kg; reference compound given to Group-B 4 rabbits (2M & 2F) and placebo given to group-C after 15 min each rat was dosed with 2.5% formalin in saline solution 0.1 ml was injected into middle of paw, and monitor for number of licking or scratching's happened with each animal in all groups and compared each group with other in the below table.

The next series concerns yeast-induced pyrexia. Briefly: In vivo comparative antipyretic effect study (Baker's yeast induced pyrexia). The arrangement: species or system SD rats. Conditions: for Effect on yeast-induced pyrexia (rise in temperature), 3 hours / Effect on yeast-induced pyrexia (rise in temperature), 6 hours / Effect on yeast-induced pyrexia (rise in temperature), 9 hours: SD rats, Test 300 mg/kg orally, reference 150 mg/kg, Mean ± SD, in °C (unit assumed). How it is done: The in vivo pharmacological study conducted the anti-pyretic activity of acetaminophen Phenylbutyrate (APPB) formulations in SD rats against yeast induced pyrexia 12 rats (M&F) (Baker's yeast induced antipyretic model 24 hr) After measuring basal TR of the animals, they were injected with a pyrogenic dose of Baker's yeast (0.135 g/kg, i.p.). TR changes were recorded every hour up to 4 h. […] Animals were randomly divided into three groups 4 rats in each group, Group-A Test (Acetaminophen phenylbutyrate) and Group-B reference (Acetaminophen) and Group-C Control (placebo). Group-A 4 rats (2M & 2F) were treated with Test 300 mg/kg orally given and 150 mg/kg reference compound given to Group-B 4 rats (2M & 2F) and placebo given to group-C. From the time baker yeast injection body temperature will rise keep monitor every 30-60 min once and record. And after treatment (time after treatment with test, reference and placebo) the body temperature was monitored rectally, for next 6 hr (0, 0.5, 1.0, 1.5, 2, 3, 4, and 6) using digital thermometer which can capture 0.1 F body temp ad recorded. […] Yeast injection in experimental animals caused significant rise in body temperature at the various time intervals as recorded rectally with the help of a tele-thermometer.

A further series deals with Sprague Dawley (SD) rats. Briefly: In vivo safety and dose ranging study.

SMILES strings stand for the structures. Where “and” joins values, the source holds several entries; their conditions need not be identical. Identical values can stand only once.

Regarding `CC(=O)N(C(=O)CCCc1ccccc1)c1ccc(O)cc1` [APPB, N-(4-phenylbutanoyl)-N-(4-hydroxyphenyl)acetanyide], in the series with formaldehyde pain model, the “Amplitude of rubbing activity, Mean” value came to 3.62 s; the “Amplitude of rubbing activity, Sum” value turned out to be 36.19 s; the No. of rubbings is 4 and 3 and 2 and 1; the “Amplitude of rubbing activity” value is 12.64 s and 11.84 s and 6.69 s and 5.02 s. Further, the “attenuation of rise in temperature, in words” value (“attenuation of rise” for short) with yeast-induced pyrexia (6 and 9 h after yeast injection, in comparison to placebo control group) was “attenuated the raise in temperature in a highly significant manner”. Further, the “attenuation of rise” value in the series with yeast-induced pyrexia (3 h after yeast injection) is recorded as “significantly attenuated the rise in temperature”. In the series with yeast-induced pyrexia, the “Effect on yeast-induced pyrexia (rise in temperature), 3 hours” value was found to be 1.21 ± 0.13; the “Effect on yeast-induced pyrexia (rise in temperature), 6 hours” value is listed as 1.48 ± 0.08; the “Effect on yeast-induced pyrexia (rise in temperature), 9 hours” value is 1.83 ± 0.06. Also, the “treatment related clinical signs” value with Sprague Dawley (SD) rats (500, 1000 and 1500 mg/kg/per day orally for 5 days, M&F SD rats) is given as “No treatment related clinical signs were noticed”. Further, the survival entry in the series with Sprague Dawley (SD) rats (500, 1000 and 1500 mg/kg/per day orally for 5 days, observation for one week after treatment) is listed as “All group animals were survived”. The overall safety conclusion entry in the series with Sprague Dawley (SD) rats (500-1500 mg/kg/per day orally for 5 days) is given as “safe for prolonged use at higher doses”.
In the case of `CC(=O)Nc1ccc(O)cc1` [Acetaminophen, N-(4-hydroxyphenyl)acetamide, reference compound], in the series on formaldehyde pain model, the “Amplitude of rubbing activity, Mean” value is 2.78 s; the “Amplitude of rubbing activity, Sum” value worked out at 16.7 s; the No. of rubbings is 1 (2×) and 2 (2×); the “Amplitude of rubbing activity” value was 3.1 s and 6.7 s and 2.6 s and 4.3 s. Besides, in the series on yeast-induced pyrexia, the “Effect on yeast-induced pyrexia (rise in temperature), 3 hours” value is 0.83 ± 0.08; the “Effect on yeast-induced pyrexia (rise in temperature), 6 hours” value is 1.31 ± 0.23; the “Effect on yeast-induced pyrexia (rise in temperature), 9 hours” value worked out at 1.91 ± 0.14. Besides, in the series on yeast-induced pyrexia (all time intervals), the “attenuation of rise” value is on record as “attenuated the rise in temperature to a significant extent at all time intervals”.

(Values after patent US20210008015A1, “HEPATOPROTECTENT PHENYLBUTYRATYRATE DRUG CONJUGATES, AND THEIR COMPOSITIONS PREPARATION AND METHODS OF USE THEREOF” (priority 2019, published 2021).)
